Results: US12055546B2, “Fluorescent probe for detecting carboxypeptidase activity” (THE UNIVERSITY OF TOKYO, priority 2018, dated 2024)

What was measured:
PSMA [1] = molecular target: T1, PSMA (Homo sapiens, UniProt Q04609); experiment: Enzyme assay with PSMA (Example 2), fluorescence spectrum and Michaelis-Menten plot; type: biochemical; settings: for Fluorescence rise due to enzymatic reaction with PSMA: 10 μM probe, 0.44 μg PSMA, 37° C., 15 hours
Experimental: A change in the fluorescence spectrum due to the enzymatic reaction was measured as follows. The reactivity of 6-fluAFGlu to PSMA was evaluated by creating a Michaelis-Menten plot. • (1) Two solutions prepared by dissolving 10 μM probe in 200 μL of each assay buffer were provided. • (Assay buffer: 50 mM HEPES, 100 mM NaCl, pH 7.5) • (2) 0.44 μg of PSMA was added to each and incubated at 37° C. for 15 hours. For one of the solutions, a PSMA specific inhibitor 2-(Phosphonomethyl)-pentandioic acid (2-PMPA) (final concentration 10 μM) was also added at the same time and incubated at 37° C. for 15 hours. • (3) Each solution after the incubation in (2) was diluted to 2800 μL with 200 mM Na-Pi buffer, and the fluorescence spectrum was measured.
FIG. 1 illustrates the fluorescence spectrum of 5-fluAFGlu and 6-fluAFGlu after addition of PSMA and an inhibitor (2-PMPA, 10 μM) (S/N to 417 at 516 nm).

[2] = test system: LNCaP (PSMA expressing cell); experiment: Live cell assay on 96-well plate (plate reader); type: cell-based
Experimental: LNCaP as a PSMA expressing cell and PC3 as a PSMA non-expressing cell were cultured on a 96-well plate, a 10 μM aqueous solution of 6-fluAFGlu (Compound 25) was added thereto, and the cells were observed over time.

[3] = test system: PC3 cell lysate (PSMA non-expressing prostate cancer cell); experiment: Cell lysate assay, PC3; type: biochemical; settings: probe 10 μM, 37° C.
Experimental: (§1) A PSMA specific inhibitor 2-PMPA (10 μM) was added to one of LNCaP cell lysate samples at the same time, and measurement was performed. • (2) The obtained fluorescence intensity of each lysate was normalized based on 0 minutes being set to 1, and then plot was performed with the incubation time on the horizontal axis.
(§2) A solution (20 μM, 100 μL) of 2Me5GluAF-TG (Compound 32) and a cell lysate (0.36 mg/mL, 100 μL) were reacted in TBS-T buffer at 37° C., and the fluorescence intensity was measured every 30 minutes. The measurement procedure is as described in Example 3.
(§3) Ex/em: 485/535 nm, n=3, probe final concentration: 10 μM, inhibitor (2-PMPA) concentration: 10 μM

[4] = Absorption/fluorescence spectrum measurement; type: physicochemical; settings: for Absorption maximum (nm) / Fluorescence maximum (nm) / Quantum yield: 200 mM phosphate buffer (pH 7.4); for Fluorescence under physiological conditions: as compared to fluorescein
Experimental: The absorption spectrum was measured using UV-2450 (SIMADZU), and the fluorescence spectrum was measured using F-7000 (HITACHI).
FIG. 9 and FIG. 10 illustrate the results of the absorption/fluorescence spectrum measurement of 2Me5GluAF-TG (Compound 32). […] The absorption spectrum was measured using UV-2450 (SIMADZU), and the fluorescence spectrum was measured using F-7000 (HITACHI).

[5] = test system: LNCaP cell lysate (PSMA expressing prostate cancer cell); experiment: Cell lysate assay, LNCaP; type: biochemical; settings: probe 10 μM, 37° C.; for Increase in fluorescence in LNCaP cell lysate with inhibitor: 2-PMPA 10 μM
Experimental: as §1, §2, §3

PSMA [6] = molecular target: T1, PSMA; experiment: Reactivity with PSMA purified enzyme (Example 6); type: biochemical
carboxypeptidase A (CPA) = molecular target: T2, carboxypeptidase A (CPA) (Homo sapiens, UniProt P15085); experiment: Enzyme assay with CPA; type: biochemical
T2 sequence (P15085 111-419): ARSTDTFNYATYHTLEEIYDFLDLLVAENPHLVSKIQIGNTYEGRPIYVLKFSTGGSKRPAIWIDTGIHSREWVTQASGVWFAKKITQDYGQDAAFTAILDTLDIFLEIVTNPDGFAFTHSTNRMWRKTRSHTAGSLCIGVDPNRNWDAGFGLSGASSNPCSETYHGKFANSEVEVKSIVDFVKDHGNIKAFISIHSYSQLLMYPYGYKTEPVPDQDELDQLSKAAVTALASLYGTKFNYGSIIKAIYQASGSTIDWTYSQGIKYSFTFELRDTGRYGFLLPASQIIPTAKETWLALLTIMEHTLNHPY
Experimental: • (1) First to third solutions prepared by dissolving 10 μM probe in 600 μL of each assay buffer were provided. • (Assay buffer: Tris-buffered saline (TBS)) (2) 2 μg of CPA was activated with 18 μL of 5 ng/mL trypsine solution for 1 hour • (3) 9 μL of the solution in (2) was added to the solution in (1), and the mixture was incubated at 37° C. for 5 hours. For one of the solutions, a CPA specific inhibitor; potato carboxypeptidase inhibitor (final concentration 10 μg/mL) was also added at the same time and incubated at 37° C. for 5 hours. • (4) 200 μL of each solution after the incubation in (3) was diluted to 2800 μL with 200 mM Na-Pi […], and the fluorescence spectrum was measured.

[7] = test system: PC3 cells (PSMA non-expression); experiment: Live cell imaging, PC3 cells (confocal microscope); type: cell-based; settings: probe 10 μM in HBSS(+), image every 1 hour
Experimental: (§4) A solution (final concentration: 10 μM) of 2Me5GluAF-TG (Compound 32) diluted with HBSS(+) was added to LNCaP cells (high PSMA expression) or PC3 cells (PSMA non-expression), and a fluorescence image was taken by a confocal microscope every 1 hour under the following conditions while culturing at 37° C. and 5% CO2.

[8] = test system: human prostate cancer surgical specimen; experiment: Study using human prostate cancer surgical specimen; settings: 2.50 μM probe solution in 1×TBS, 40° C., up to 4 hours
Experimental: • 1. Wash surgical specimen with 1×TBS buffer • 2. Add dropwise 2.50 μM of 2Me5GluAF-TG solution (diluted with 1×TBS buffer) so that the whole specimen is immersed. • 3. While heating to 40° C. with a heater, take a fluorescence image by Maestro for up to 4 hours • 4. Judge from the fluorescence image taken 4 hours after immersion, select and cut out several sites showing bright fluorescence and several sites showing no fluorescence, and fix with a 10% formalin solution • 5. Request a pathologist to perform HE staining/PSMA immunostaining on each site and evaluate a rate of cancer sites and PSMA expression
The results of using four types of specimens are illustrated in FIG. 21 to FIG. 24. FIG. 25 illustrates a result obtained by changing the above protocol (changing a method so that a surface is covered with gauze soaked in a probe solution, temporarily removing the gauze, and taking a fluorescence image). • (a) of each figure illustrates a photograph before immersion of the surgical specimen in a Me5GluAF-TG solution and a photograph taken 4 hours after the immersion (the right side is a fluorescence image). The graph on the left side of (b) illustrates a change in fluorescence intensity at a selected site of the surgical specimen from the immersion in the Me5GluAF-TG solution to 4 hours after the immersion. […]

LNCaP cells = experiment: LC-UV/MS analysis of extracellular fluid after LNCaP imaging; type: cell-based
Experimental: After imaging of LNCaP cells using 2Me5GluAF-TG, a collected extracellular fluid, and 2Me5GluAF-TG and 2MeTG synthesized as preparations were subjected to the LC-MS analysis under the following conditions.
Probe concentration: 10 μM (2Me5GluAF-TG, extracellular fluid), 2 μM (2MeTG).

PSMA [9] = molecular target: T1, PSMA; experiment: LC-UV/MS analysis of PSMA reaction solution; type: biochemical; settings: 10 hours
Experimental: A solution, prepared after recombinant human PSMA and 2Me5GluAF-TG (Compound 32) were reacted for 10 hours, and 2Me5GluAF-TG and 2MeTG synthesized as preparations were subjected to LC-UV/MS analysis.
Probe concentration: 10 μM (2Me5GluAF-TG, enzyme reaction solution), 2 μM (2MeTG). The results are illustrated in FIG. 13 and FIG. 14.

[10] = test system: LNCaP cells (high PSMA expression); experiment: Live cell imaging, LNCaP cells (confocal microscope); type: cell-based
Experimental: as §4
A probe (2Me5GluAF-TG) and an inhibitor were added, and after culturing at 37° C. and 5% CO2 for 15 hours, a fluorescence image was taken with a confocal microscope. Probe concentration: 10 μM, inhibitor (2-PMPA) concentration: 10 μM, Ex/em: 490/500-600 nm, Scale bar: 50 μm.
Ten intracellular regions and ten extracellular regions were each surrounded by ROI, and an average value of the fluorescence intensity was calculated. FIG. 18a illustrates the taken fluorescence image, and FIG. 18b illustrates the average value of the fluorescence intensity with and without addition of the inhibitor.

[11] = test system: Cc1ccc(/N=N/C(=O)N[C@@H](CCC(=O)O)C(=O)O)cc1-c1c2ccc(=O)cc-2oc2cc(O)ccc12; experiment: Reactivity with PSMA purified enzyme (Example 6); type: biochemical, human; settings: other: apparent dynamic parameter, PSMA added to various probe concentrations, Table 4; 37.0 °C
[12] = apparent dynamic parameter with PSMA, Table 2

T1 sequence (Q04609 whole entry): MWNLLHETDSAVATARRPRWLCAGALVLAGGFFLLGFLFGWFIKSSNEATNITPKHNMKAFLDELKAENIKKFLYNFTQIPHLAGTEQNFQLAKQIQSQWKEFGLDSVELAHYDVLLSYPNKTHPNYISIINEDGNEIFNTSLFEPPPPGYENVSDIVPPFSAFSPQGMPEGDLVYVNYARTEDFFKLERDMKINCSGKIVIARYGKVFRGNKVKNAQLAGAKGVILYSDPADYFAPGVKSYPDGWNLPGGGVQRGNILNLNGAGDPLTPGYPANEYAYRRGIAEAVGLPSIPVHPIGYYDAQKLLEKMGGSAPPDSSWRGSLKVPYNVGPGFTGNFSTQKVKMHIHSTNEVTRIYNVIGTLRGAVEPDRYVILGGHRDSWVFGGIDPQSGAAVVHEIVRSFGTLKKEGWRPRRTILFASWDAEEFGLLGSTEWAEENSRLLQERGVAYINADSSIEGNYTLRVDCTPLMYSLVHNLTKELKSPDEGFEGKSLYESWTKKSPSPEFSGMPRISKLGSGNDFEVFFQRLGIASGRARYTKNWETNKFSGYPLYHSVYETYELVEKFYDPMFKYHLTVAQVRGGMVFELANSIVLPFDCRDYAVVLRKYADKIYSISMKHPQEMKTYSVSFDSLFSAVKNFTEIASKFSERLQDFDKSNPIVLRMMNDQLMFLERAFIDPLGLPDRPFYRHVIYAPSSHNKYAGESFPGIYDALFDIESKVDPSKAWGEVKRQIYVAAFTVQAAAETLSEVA

O=C(O)CCC(NC(=O)N=Nc1ccc(C(=O)O)c(-c2c3ccc(=O)cc-3oc3cc(O)ccc23)c1)C(=O)O (centres unmarked) [Compound 6-fluAFGlu]
Fluorescence rise due to enzymatic reaction with PSMA (PSMA [1]): a fluorescence rise due to an enzymatic reaction was observed
Km (PSMA [1]; [12]): 2.4 µM
kcat (PSMA [1]; [12]): 0.00055 s⁻¹
S/N of fluorescence spectrum after addition of PSMA and inhibitor (PSMA [1]; at 516 nm, inhibitor 2-PMPA 10 μM): ~417
Increase in fluorescence intensity in live LNCaP cells ([2]; 10 μM probe in TBS, compared to PC3): a significant increase in fluorescence intensity was observed in LNCaP compared to PC3
Increase in fluorescence in live LNCaP cells with inhibitor ([2]; 10 μM probe, 2-PMPA 10 μM): significantly suppressed
Increase in fluorescence in PC3 cell lysate [3]: almost no increase in fluorescence was observed
Absorption maximum (nm) [4]: 494 nm
Fluorescence maximum (nm) [4]: 526 nm
Quantum yield [4]: 0.002
Fluorescence under physiological conditions [4]: almost no fluorescencence
Increase in fluorescence in LNCaP cell lysate with inhibitor [5]: almost no increase in fluorescence was observed
Increase in fluorescence in LNCaP cell lysate [5]: a significant increase in fluorescence was observed
Km (PSMA [6]; apparent dynamic parameter, PSMA added to various probe concentrations, Table 4): 5 µM
kcat (PSMA [6]; apparent dynamic parameter, Table 4): 0.001 s⁻¹

O=C(N=Nc1ccc(C(=O)O)c(-c2c3ccc(=O)cc-3oc3cc(O)ccc23)c1)NC(Cc1ccccc1)C(=O)O (centres unmarked) [Compound 6-fluAFPhe]
Absorption maximum (nm) [4]: 494 nm
Fluorescence maximum (nm) [4]: 519 nm
Quantum yield [4]: 0.025
Fluorescence under physiological conditions [4]: almost no fluorescencence
Fluorescence rise due to enzymatic reaction with CPA (carboxypeptidase A (CPA); 10 μM probe, 37° C., 5 hours): the fluorescence rise due to the enzymatic reaction was observed
S/N of fluorescence spectrum after addition of CPA1 and inhibitor (carboxypeptidase A (CPA); at 517 nm, potato carboxypeptidase inhibitor, 10 μM): ~13

O=C(O)CCC(NC(=O)N=Nc1ccc2c(c1)C(=O)OC21c2ccc(O)cc2Oc2cc(O)ccc21)C(=O)O (centres unmarked) [Compound 5-fluAFGlu]
Fluorescence rise due to enzymatic reaction with PSMA (PSMA [1]): only in 6-fluAFGlu
Absorption maximum (nm) [4]: 494 nm
Fluorescence maximum (nm) [4]: 521 nm
Quantum yield [4]: 0.003
Fluorescence under physiological conditions [4]: almost no fluorescencence

Cc1ccc(/N=N/C(=O)N[C@@H](CCC(=O)O)C(=O)O)cc1-c1c2ccc(=O)cc-2oc2cc(O)ccc12 [Compound 2Me5GluAF-TG]
Increase in fluorescence in PC3 cell lysate [3]: almost no increase in fluorescence was observed
Φfl ([4]; 0.2M phosphate buffer (pH 7.4)): 0.002
λabs (nm) ([4]; Table 3): 495 nm
λem (nm) ([4]; Table 3): 516 nm
Fluorescence under physiological conditions [4]: almost no fluorescencence
Increase in fluorescence in LNCaP cell lysate with inhibitor [5]: almost no increase in fluorescence was observed
Increase in fluorescence in LNCaP cell lysate [5]: a significant increase in fluorescence was observed
Fluorescence image in PC3 cells [7]: no change was observed in the fluorescence image
Relation of fluorescence increase to cancer site / PSMA expression [8]: a rough correlation between the increase in fluorescence intensity and the presence or absence of the cancer site or a PSMA expression level
Product in extracellular fluid (LC-MS) (LNCaP cells; absence of the inhibitor (2-PMPA)): production of fluorescent 2MeTG was confirmed
Stability of the probe in extracellular fluid (LC-MS) (LNCaP cells; inhibitor added): stable
Increase in fluorescence with PSMA (PSMA [6]; 10 μM probe, 0.44 μg PSMA, 1×TBS, 37° C.): the increase in fluorescence due to the enzymatic reaction was observed
Increase in fluorescence with PSMA in presence of inhibitor (PSMA [6]; inhibitor 2-PMPA 10 μM): No increase in fluorescence was observed
Stability of the probe (LC-UV/MS) (PSMA [9]; inhibitor (2-PMPA) added or absence of PSMA): stable
Products of the reaction with PSMA (LC-UV/MS) (PSMA [9]; probe 10 μM, in the presence of PSMA): 2MeTG and 2Me5OH-TG exhibiting fluorescence in the presence of PSMA were produced
Fluorescence image intensity in LNCaP cells ([10]; probe 10 μM in HBSS(+), image every 1 hour): the fluorescence intensity of the fluorescence image increased with the passage of time
Fluorescence image intensity with inhibitor ([10]; probe 10 μM, 2-PMPA 10 μM, 15 hours): the intensity of the fluorescence image does not increase
Average fluorescence intensity inside versus outside the cell ([10]; probe 10 μM, no inhibitor, 15 hours): the average value of the fluorescence intensity inside the cell is much higher than that outside the cell

recombinant human PSMA (Homo sapiens)
Km [11]: 4.3 µM
kcat [11]: 0.066 s⁻¹
kcat/Km [11]: 15300 M⁻¹ s⁻¹
